Reference: patent publication US20130109758A1, “BISPHENOL DERIVATIVE THERAPEUTICS AND METHODS FOR THEIR USE” (THE UNIVERSITY OF BRITISH COLUMBIA, priority 2010, published 2013)

molecular target: T1, androgen receptor (AR) (Homo sapiens, UniProt P10275, T878A); assay: LNCaP PSA (6.1 kb)-luciferase assay (R1881-induced); format: cell-based; conditions: LNCaP PSA (6.1 kb)-luciferase assay, dose response against DMSO and EPI-001 controls (FIGS. 1-6)
T1 construct: LNCaP cells express endogenous AR and secrete prostate-specific antigen (PSA); endogenous in cells; host or cells: LNCaP human prostate cancer cells
T1 sequence (P10275 1-920 T878A): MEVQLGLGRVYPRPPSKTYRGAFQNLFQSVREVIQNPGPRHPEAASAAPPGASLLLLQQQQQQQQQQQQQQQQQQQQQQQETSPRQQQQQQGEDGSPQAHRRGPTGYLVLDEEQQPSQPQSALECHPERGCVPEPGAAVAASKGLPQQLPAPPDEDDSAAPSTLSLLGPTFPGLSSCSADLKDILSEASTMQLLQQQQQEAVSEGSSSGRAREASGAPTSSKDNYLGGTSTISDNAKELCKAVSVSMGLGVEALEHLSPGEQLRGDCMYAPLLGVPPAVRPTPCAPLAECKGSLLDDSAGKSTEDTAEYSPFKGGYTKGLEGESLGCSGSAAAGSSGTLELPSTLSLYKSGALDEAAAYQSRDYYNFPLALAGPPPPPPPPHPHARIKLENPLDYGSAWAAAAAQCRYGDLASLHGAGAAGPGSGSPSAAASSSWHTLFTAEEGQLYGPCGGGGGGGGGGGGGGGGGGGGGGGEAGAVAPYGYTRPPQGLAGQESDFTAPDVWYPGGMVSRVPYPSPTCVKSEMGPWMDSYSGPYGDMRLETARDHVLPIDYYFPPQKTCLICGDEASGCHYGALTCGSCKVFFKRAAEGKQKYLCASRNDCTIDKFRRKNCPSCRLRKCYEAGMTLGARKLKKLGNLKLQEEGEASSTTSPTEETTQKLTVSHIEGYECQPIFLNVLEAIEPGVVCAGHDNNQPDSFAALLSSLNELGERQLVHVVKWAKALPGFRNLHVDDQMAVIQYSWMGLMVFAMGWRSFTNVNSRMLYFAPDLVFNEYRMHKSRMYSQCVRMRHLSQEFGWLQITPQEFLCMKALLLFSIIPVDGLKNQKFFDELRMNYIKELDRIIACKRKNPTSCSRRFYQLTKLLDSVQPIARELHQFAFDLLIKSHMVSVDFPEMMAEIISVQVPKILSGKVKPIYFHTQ
Text: LNCaP cells were employed initially for all experiments because they are well-differentiated human prostate cancer cells in which ligand-independent activation of the AR by FSK has been characterized (Nazareth et al 1996 J. Biol. Chem. 271, 19900-19907; and Sadar 1999 J. Biol. Chem. 274, 7777-7783). LNCaP cells express endogenous AR and secrete prostate-specific antigen (PSA) (Horoszewicz et al 1983 Cancer Res. 43, 1809-1818). LNCaP cells can be grown either as monolayers in cell culture or as tumors in the well-characterized xenograft model that progresses to androgen independence in castrated hosts (Sato et al 1996 J. Steroid Biochem. Mol. Biol. 58, 139-146; Gleave et al 1991 Cancer Res. 51, 3753-3761; Sato et al 1997 Cancer Res. 57, 1584-1589; and Sadar et al 2002 Mol. Cancer. Ther. 1(8), 629-637). […] Small molecules that specifically target the AR-NTD should have no effect on PC3 cells. This means that they should not alter the proliferation of PC3 cells if they specifically block the AR to mediate their inhibitory effects. R1881 was employed since it is stable and avoids problems associated with the labile physiological ligand dihydrotestosterone (DHT). Reporter specificity may be determined using several alternative reporter gene constructs. Some well characterized ARE-driven reporter gene constructs that have been used extensively are the PSA (6.1 kb) enhance/promoter which contains several AREs and is highly inducible by androgens as well as by FSK (Ueda et al 2002 A J. Biol. Chem. 277, 7076-7085) and the ARR3-thymidine kinase (tk)-luciferase, which is an artificial reporter construct that contains three tandem repeats of the rat probasin ARE1 and ARE2 regions upstream of a luciferase reporter (Snoek et al 1996 J. Steroid Biochem. Mol. Biol. 59, 243-250).
LNCaP cells were transiently cotransfected with PSA (6.1 kb)-luciferase (0.25 μg/well) in 24-well plates for 24 h prior to pre-treatment with compounds for 1 hour before the addition of synthetic androgen, R1881 (1 nM) to induce PSA production or vehicle. The total amount of plasmid DNA transfected was normalized to 0.75 μg/well by the addition of the empty vector. After 48 h of incubation with R1881, the cells were harvested, and relative luciferase activity was determined. Test compounds were added to the cells at various concentrations and activity for each treatment was normalized to the predicted maximal activity induction (in the absence of test compounds, vehicle only). Plotting of sigmoidal curves (Boltzmann Function) and IC50 calculations were done using OriginPro 8.1 Software (Northampton, Mass., USA).
Using the LNCaP PSA (6.1 kb)-luciferase assay described above, various compounds described herein were tested against DMSO and EPI-001 controls. In FIG. 1, a comparison is made between EPI-100, EPI-101, EPI-102 and DMSO from 1 to 35 μM. […] In FIG. 3A, EPI-107 is compared to DMSO and EPI-001 at 2.5 μM to 10 μM. In FIG. 3B, EPI-108 is compared to DMSO at 0.5 μM to 35 μM. In FIG. 4A, EPI-114 is compared to DMSO and EPI-001 at 5 μM and 10 μM. In FIG. 4B, EPI-116 is compared to DMSO and EPI-001 at 1 μM to 30 μM.

| Structure (SMILES) | androgen receptor inhibitory activity |
| --- | --- |
| C#CCOc1ccc(C(=O)c2ccc(O)cc2)cc1 [EPI-106] | showed androgen receptor inhibitory activity |
| C#CCOc1ccc(C(=O)c2ccc(OCCCCl)cc2)cc1 [EPI-107] | showed androgen receptor inhibitory activity |
| C#CCOc1ccc(C(=O)c2ccc(OCCCBr)cc2)cc1 [EPI-108] | showed androgen receptor inhibitory activity |
| C#CCOc1ccc(C(=O)c2ccc(OCC#C)cc2)cc1 [EPI-109] | showed androgen receptor inhibitory activity |
| C#CCOc1ccc(C(=O)c2ccc(OCC(O)CO)cc2)cc1 (stereo not drawn) [EPI-111] | showed androgen receptor inhibitory activity |
| O=C(c1ccc(OCC(O)CCl)cc1)c1ccc(OCC(O)CCl)cc1 (stereo not drawn) [EPI-114] | showed androgen receptor inhibitory activity |
| O=C(c1ccc(OCCCCl)cc1)c1ccc(OCCCCl)cc1 [EPI-116] | showed androgen receptor inhibitory activity |
| O=C(c1ccc(O)cc1)c1ccc(OCCCCl)cc1 [EPI-117] | showed androgen receptor inhibitory activity |
| OC(CCl)COc1ccc(Oc2ccc(OCC(O)CCl)cc2)cc1 (stereo not drawn) [EPI-300] | showed androgen receptor inhibitory activity |
| OC(CCl)COc1ccc(Sc2ccc(OCC(O)CCl)cc2)cc1 (stereo not drawn) [EPI-400] | showed androgen receptor inhibitory activity |
| OC(CCl)COc1ccc(-c2ccc(OCC(O)CCl)cc2)cc1 (stereo not drawn) [EPI-3000] | showed androgen receptor inhibitory activity |

same assay, conditions: LNCaP cells transfected with PSA (6.1 kb)-luciferase, 1 h pre-treatment with compound, R1881 1 nM, 48 h

| Structure (SMILES) | EXPERIMENTAL DATA (activity in the LNCaP PSA (6.1 kb)-luciferase assay) |
| --- | --- |
| C#CCOc1ccc(C(=O)c2ccc(OCC(O)CCl)cc2)cc1 (centres unmarked) | Active |
| C#CCOc1ccc(C(=O)c2ccc(OC[C@@H](O)CCl)cc2)cc1 | Active |
| C#CCOc1ccc(C(=O)c2ccc(OC[C@H](O)CCl)cc2)cc1 | Active |
| C#CCOc1ccc(C(=O)c2ccc(O)cc2)cc1 [drawing 505] | Active |
| C#CCOc1ccc(C(=O)c2ccc(OCCCCl)cc2)cc1 [drawing 506] | Active |
| C#CCOc1ccc(C(=O)c2ccc(OCCCBr)cc2)cc1 [drawing 507] | Active |
| C#CCOc1ccc(C(=O)c2ccc(OCC#C)cc2)cc1 [drawing 508] | Active |
| C#CCOc1ccc(C(=O)c2ccc(OCC(O)CO)cc2)cc1 (centres unmarked) [drawing 509] | Active |
| O=C(c1ccc(OCC(O)CCl)cc1)c1ccc(OCC(O)CCl)cc1 (centres unmarked) [drawing 510] | Active |
| O=C(c1ccc(OCCCCl)cc1)c1ccc(OCCCCl)cc1 [drawing 511] | Active |
| O=C(c1ccc(O)cc1)c1ccc(OCCCCl)cc1 [drawing 512] | Active |
| OC(CCl)COc1ccc(Oc2ccc(OCC(O)CCl)cc2)cc1 (centres unmarked) [drawing 513] | Active |
| OC(CCl)COc1ccc(Sc2ccc(OCC(O)CCl)cc2)cc1 (centres unmarked) [drawing 514] | Active |
| OC(CCl)COc1ccc(-c2ccc(OCC(O)CCl)cc2)cc1 (centres unmarked) [drawing 515] | Active |
| CC(C)(c1ccc(OCC(O)CO)cc1)c1ccc(OCC(O)CCl)cc1 (centres unmarked) [reference compound] | Active (positive control) |
